Data reported in ChEMBL document CHEMBL4828717, “Synthetic cajaninstilbene acid derivatives eradicate methicillin-resistant Staphylococcus aureus persisters and biofilms” (Eur J Med Chem, 2021).

What was measured:
Staphylococcus aureus [1] = assay: Antibacterial activity against methicillin resistant Staphylococcus aureus ATCC49025 assessed as reduction in microbial growth after 16 to 18 hrs by microbroth dilution method; assay type: functional; details: time 16-18 hrs
Staphylococcus aureus [2] = assay: Antibacterial activity against methicillin resistant Staphylococcus aureus ATCC 43300 assessed as reduction in microbial growth after 16 to 18 hrs by microbroth dilution method; assay type: functional; details: time 16-18 hrs
Staphylococcus aureus [3] = assay: Antibacterial activity against methicillin resistant Staphylococcus aureus ATCC513045 assessed as reduction in microbial growth after 16 to 18 hrs by microbroth dilution method; assay type: functional; details: time 16-18 hrs
RAW264.7 = assay: Cytotoxicity against mouse RAW264.7 cells assessed as cell viability at 10 ug/ml measured after 24 hrs by MTT assay; assay type: cell-based; details: raw264.7, 24 h, dose 10 µg/ml
Staphylococcus aureus [4] = assay: Antibacterial activity against methicillin resistant Staphylococcus aureus ATCC48073 assessed as reduction in microbial growth after 16 to 18 hrs by microbroth dilution method; assay type: functional; details: time 16-18 hrs
L02 = assay: Cytotoxicity against human L02 cells assessed as cell viability at 10 ug/ml measured after 24 hrs by MTT assay; assay type: cell-based; details: l02, 24 h, dose 10 µg/ml
Staphylococcus aureus [5] = assay: Antibacterial activity against methicillin resistant Staphylococcus aureus ATCC515992 assessed as reduction in microbial growth after 16 to 18 hrs by microbroth dilution method; assay type: functional; details: time 16-18 hrs
Staphylococcus aureus [6] = assay: Antibacterial activity against methicillin resistant Staphylococcus aureus ATCC 52056 assessed as reduction in microbial growth after 16 to 18 hrs by microbroth dilution method; assay type: functional; details: time 16-18 hrs
Staphylococcus aureus [7] = assay: Antibacterial activity against methicillin resistant Staphylococcus aureus ATCC 62202 assessed as reduction in microbial growth after 16 to 18 hrs by microbroth dilution method; assay type: functional; details: time 16-18 hrs
Staphylococcus aureus [8] = assay: Antibacterial activity against methicillin resistant Staphylococcus aureus ATCC49008 assessed as reduction in microbial growth after 16 to 18 hrs by microbroth dilution method; assay type: functional; details: time 16-18 hrs
Escherichia coli = assay: Antibacterial activity against Escherichia coli ATCC25922 assessed as reduction in microbial growth after 16 to 18 hrs by microbroth dilution method; assay type: functional; details: ATCC 25922, time 16-18 hrs
Staphylococcus aureus [9] = assay: Antibacterial activity against methicillin resistant Staphylococcus aureus ATCC48966 assessed as reduction in microbial growth after 16 to 18 hrs by microbroth dilution method; assay type: functional; details: time 16-18 hrs
Pseudomonas aeruginosa = assay: Antibacterial activity against Pseudomonas aeruginosa ATCC27853 assessed as reduction in microbial growth after 16 to 18 hrs by microbroth dilution method; assay type: functional; details: time 16-18 hrs
Staphylococcus aureus [10] = assay: Antibacterial activity against Staphylococcus aureus ATCC 25923 assessed as reduction in microbial growth after 16 to 18 hrs by microbroth dilution method; assay type: functional; details: time 16-18 hrs
Staphylococcus aureus [11] = assay: Antibacterial activity against methicillin resistant Staphylococcus aureus ATCC48706 assessed as reduction in microbial growth after 16 to 18 hrs by microbroth dilution method; assay type: functional; details: time 16-18 hrs
Staphylococcus aureus [12] = assay: Antibacterial activity against methicillin resistant Staphylococcus aureus ATCC49800 assessed as reduction in microbial growth after 16 to 18 hrs by microbroth dilution method; assay type: functional; details: time 16-18 hrs
Enterococcus faecalis = assay: Antibacterial activity against Enterococcus faecalis ATCC29212 assessed as reduction in microbial growth after 16 to 18 hrs by microbroth dilution method; assay type: functional; details: ATCC 29212, time 16-18 hrs

CC(C)=CCc1c(OCCCCF)cc(/C=C/c2ccc(C(F)(F)F)cc2)c(C(=O)O)c1O
MIC (Staphylococcus aureus [1]): 4 µg/mL
MIC (Staphylococcus aureus [2]): 2 µg/mL
MIC (Staphylococcus aureus [3]): 4 µg/mL
Activity (RAW264.7): Toxic
MIC (Staphylococcus aureus [4]): 4 µg/mL
Activity (L02): Toxic
MIC (Staphylococcus aureus [5]): 2 µg/mL
MIC (Staphylococcus aureus [6]): 2 µg/mL
MIC (Staphylococcus aureus [7]): 4 µg/mL
MIC (Staphylococcus aureus [8]): 4 µg/mL
MIC (Escherichia coli): > 32 µg/mL
MIC (Staphylococcus aureus [9]): 4 µg/mL
MIC (Pseudomonas aeruginosa): > 32 µg/mL
MIC (Staphylococcus aureus [10]): 4 µg/mL
MIC (Staphylococcus aureus [11]): 4 µg/mL
MIC (Staphylococcus aureus [12]): 4 µg/mL
MIC (Enterococcus faecalis): > 32 µg/mL

CC(C)=CCc1c(OCCF)cc(/C=C/c2ccc(C(F)(F)F)cc2)c(C(=O)O)c1O
MIC (Staphylococcus aureus [1]): 8 µg/mL
MIC (Staphylococcus aureus [2]): 2 µg/mL
MIC (Staphylococcus aureus [3]): 4 µg/mL
Activity (RAW264.7): Toxic
MIC (Staphylococcus aureus [4]): 8 µg/mL
Activity (L02): Toxic
MIC (Staphylococcus aureus [5]): 4 µg/mL
MIC (Staphylococcus aureus [6]): 2 µg/mL
MIC (Staphylococcus aureus [7]): 4 µg/mL
MIC (Staphylococcus aureus [8]): 8 µg/mL
MIC (Escherichia coli): > 32 µg/mL
MIC (Staphylococcus aureus [9]): 8 µg/mL
MIC (Pseudomonas aeruginosa): > 32 µg/mL
MIC (Staphylococcus aureus [10]): 4 µg/mL
MIC (Staphylococcus aureus [11]): 8 µg/mL
MIC (Staphylococcus aureus [12]): 8 µg/mL
MIC (Enterococcus faecalis): > 32 µg/mL

CC(C)=CCc1c(OCCCCF)cc(/C=C/c2ccc(F)cc2)c(C(=O)O)c1O
MIC (Staphylococcus aureus [1]): 4 µg/mL
MIC (Staphylococcus aureus [2]): 4 µg/mL
MIC (Staphylococcus aureus [3]): 4 µg/mL
Activity (RAW264.7): Toxic
MIC (Staphylococcus aureus [4]): 4 µg/mL
Activity (L02): Toxic
MIC (Staphylococcus aureus [5]): 4 µg/mL
MIC (Staphylococcus aureus [6]): 4 µg/mL
MIC (Staphylococcus aureus [7]): 4 µg/mL
MIC (Staphylococcus aureus [8]): 4 µg/mL
MIC (Escherichia coli): > 32 µg/mL
MIC (Staphylococcus aureus [9]): 4 µg/mL
MIC (Pseudomonas aeruginosa): > 32 µg/mL
MIC (Staphylococcus aureus [10]): 4 µg/mL
MIC (Staphylococcus aureus [11]): 4 µg/mL
MIC (Staphylococcus aureus [12]): 4 µg/mL
MIC (Enterococcus faecalis): > 32 µg/mL

CC(C)=CCc1c(OCC2CC2)cc(/C=C/c2ccc(F)cc2)c(C(=O)O)c1O
MIC (Staphylococcus aureus [1]): 2 µg/mL
MIC (Staphylococcus aureus [2]): 2 µg/mL
MIC (Staphylococcus aureus [3]): 2 µg/mL
Activity (RAW264.7): Toxic
MIC (Staphylococcus aureus [4]): 2 µg/mL
Activity (L02): Toxic
MIC (Staphylococcus aureus [5]): 2 µg/mL
MIC (Staphylococcus aureus [6]): 2 µg/mL
MIC (Staphylococcus aureus [7]): 4 µg/mL
MIC (Staphylococcus aureus [8]): 2 µg/mL
MIC (Escherichia coli): > 32 µg/mL
MIC (Staphylococcus aureus [9]): 2 µg/mL
MIC (Pseudomonas aeruginosa): > 32 µg/mL
MIC (Staphylococcus aureus [10]): 2 µg/mL
MIC (Staphylococcus aureus [11]): 2 µg/mL
MIC (Staphylococcus aureus [12]): 2 µg/mL
MIC (Enterococcus faecalis): > 32 µg/mL

CC(C)=CCc1c(OC2CCCCCC2)cc(/C=C/c2ccc(F)cc2)c(C(=O)O)c1O
MIC (Staphylococcus aureus [1]): 2 µg/mL
MIC (Staphylococcus aureus [2]): 1 µg/mL
MIC (Staphylococcus aureus [3]): 2 µg/mL
Activity (RAW264.7): Toxic
MIC (Staphylococcus aureus [4]): 2 µg/mL
Activity (L02): Toxic
MIC (Staphylococcus aureus [5]): 2 µg/mL
MIC (Staphylococcus aureus [6]): 1 µg/mL
MIC (Staphylococcus aureus [7]): 2 µg/mL
MIC (Staphylococcus aureus [8]): 2 µg/mL
MIC (Escherichia coli): > 32 µg/mL
MIC (Staphylococcus aureus [9]): 2 µg/mL
MIC (Pseudomonas aeruginosa): > 32 µg/mL
MIC (Staphylococcus aureus [10]): 2 µg/mL
MIC (Staphylococcus aureus [11]): 2 µg/mL
MIC (Staphylococcus aureus [12]): 4 µg/mL
MIC (Enterococcus faecalis): > 32 µg/mL

CCCC(CC)Oc1cc(/C=C/c2ccc(F)cc2)c(C(=O)O)c(O)c1CC=C(C)C (configuration not stated)
MIC (Staphylococcus aureus [1]): 2 µg/mL
MIC (Staphylococcus aureus [2]): 1 µg/mL
MIC (Staphylococcus aureus [3]): 2 µg/mL
Activity (RAW264.7): Toxic
MIC (Staphylococcus aureus [4]): 4 µg/mL
Activity (L02): Toxic
MIC (Staphylococcus aureus [5]): 2 µg/mL
MIC (Staphylococcus aureus [6]): 2 µg/mL
MIC (Staphylococcus aureus [7]): 2 µg/mL
MIC (Staphylococcus aureus [8]): 2 µg/mL
MIC (Escherichia coli): > 32 µg/mL
MIC (Staphylococcus aureus [9]): 2 µg/mL
MIC (Pseudomonas aeruginosa): > 32 µg/mL
MIC (Staphylococcus aureus [10]): 2 µg/mL
MIC (Staphylococcus aureus [11]): 4 µg/mL
MIC (Staphylococcus aureus [12]): 2 µg/mL
MIC (Enterococcus faecalis): > 32 µg/mL

CC(C)=CCc1c(OC2CCC2)cc(/C=C/c2ccc(C(F)(F)F)cc2)c(C(=O)O)c1O
MIC (Staphylococcus aureus [1]): 1 µg/mL
MIC (Staphylococcus aureus [2]): 1 µg/mL
MIC (Staphylococcus aureus [3]): 1 µg/mL
Activity (RAW264.7): Toxic
MIC (Staphylococcus aureus [4]): 2 µg/mL
Activity (L02): Toxic
MIC (Staphylococcus aureus [5]): 2 µg/mL
MIC (Staphylococcus aureus [6]): 1 µg/mL
MIC (Staphylococcus aureus [7]): 1 µg/mL
MIC (Staphylococcus aureus [8]): 1 µg/mL
MIC (Escherichia coli): > 32 µg/mL
MIC (Staphylococcus aureus [9]): 1 µg/mL
MIC (Pseudomonas aeruginosa): > 32 µg/mL
MIC (Staphylococcus aureus [10]): 2 µg/mL
MIC (Staphylococcus aureus [11]): 1 µg/mL
MIC (Staphylococcus aureus [12]): 2 µg/mL
MIC (Enterococcus faecalis): > 32 µg/mL

CC(C)=CCc1c(OCC(F)(F)F)cc(/C=C/c2ccc(F)cc2)c(C(=O)O)c1O
MIC (Staphylococcus aureus [1]): 4 µg/mL
MIC (Staphylococcus aureus [2]): 2 µg/mL
MIC (Staphylococcus aureus [3]): 4 µg/mL
Activity (RAW264.7): Toxic
MIC (Staphylococcus aureus [4]): 4 µg/mL
Activity (L02): Toxic
MIC (Staphylococcus aureus [5]): 4 µg/mL
MIC (Staphylococcus aureus [6]): 2 µg/mL
MIC (Staphylococcus aureus [7]): 4 µg/mL
MIC (Staphylococcus aureus [8]): 4 µg/mL
MIC (Escherichia coli): > 32 µg/mL
MIC (Staphylococcus aureus [9]): 4 µg/mL
MIC (Pseudomonas aeruginosa): > 32 µg/mL
MIC (Staphylococcus aureus [10]): 4 µg/mL
MIC (Staphylococcus aureus [11]): 4 µg/mL
MIC (Staphylococcus aureus [12]): 4 µg/mL
MIC (Enterococcus faecalis): > 32 µg/mL

CC(C)=CCc1c(OCCCF)cc(/C=C/c2ccc(C(F)(F)F)cc2)c(C(=O)O)c1O
MIC (Staphylococcus aureus [1]): 4 µg/mL
MIC (Staphylococcus aureus [2]): 2 µg/mL
MIC (Staphylococcus aureus [3]): 2 µg/mL
Activity (RAW264.7): Toxic
MIC (Staphylococcus aureus [4]): 4 µg/mL
Activity (L02): Toxic
MIC (Staphylococcus aureus [5]): 4 µg/mL
MIC (Staphylococcus aureus [6]): 2 µg/mL
MIC (Staphylococcus aureus [7]): 4 µg/mL
MIC (Staphylococcus aureus [8]): 4 µg/mL
MIC (Escherichia coli): > 32 µg/mL
MIC (Staphylococcus aureus [9]): 4 µg/mL
MIC (Pseudomonas aeruginosa): > 32 µg/mL
MIC (Staphylococcus aureus [10]): 2 µg/mL
MIC (Staphylococcus aureus [11]): 4 µg/mL
MIC (Staphylococcus aureus [12]): 4 µg/mL
MIC (Enterococcus faecalis): > 32 µg/mL

CCCC(CC)Oc1cc(/C=C/c2ccc(C(F)(F)F)cc2)c(C(=O)O)c(O)c1CC=C(C)C (configuration not stated)
MIC (Staphylococcus aureus [1]): 8 µg/mL
MIC (Staphylococcus aureus [2]): 2 µg/mL
MIC (Staphylococcus aureus [3]): 2 µg/mL
Activity (RAW264.7): Toxic
MIC (Staphylococcus aureus [4]): 4 µg/mL
Activity (L02): Toxic
MIC (Staphylococcus aureus [5]): 4 µg/mL
MIC (Staphylococcus aureus [6]): 2 µg/mL
MIC (Staphylococcus aureus [7]): 2 µg/mL
MIC (Staphylococcus aureus [8]): 8 µg/mL
MIC (Escherichia coli): > 32 µg/mL
MIC (Staphylococcus aureus [9]): 8 µg/mL
MIC (Pseudomonas aeruginosa): > 32 µg/mL
MIC (Staphylococcus aureus [10]): 4 µg/mL
MIC (Staphylococcus aureus [11]): 4 µg/mL
MIC (Staphylococcus aureus [12]): 4 µg/mL
MIC (Enterococcus faecalis): > 32 µg/mL

CC(C)=CCc1c(OCC2CC2)cc(/C=C/c2ccc(C(F)(F)F)cc2)c(C(=O)O)c1O
MIC (Staphylococcus aureus [1]): 2 µg/mL
MIC (Staphylococcus aureus [2]): 2 µg/mL
MIC (Staphylococcus aureus [3]): 2 µg/mL
Activity (RAW264.7): Toxic
MIC (Staphylococcus aureus [4]): 2 µg/mL
Activity (L02): Toxic
MIC (Staphylococcus aureus [5]): 2 µg/mL
MIC (Staphylococcus aureus [6]): 1 µg/mL
MIC (Staphylococcus aureus [7]): 2 µg/mL
MIC (Staphylococcus aureus [8]): 2 µg/mL
MIC (Escherichia coli): > 32 µg/mL
MIC (Staphylococcus aureus [9]): 2 µg/mL
MIC (Pseudomonas aeruginosa): > 32 µg/mL
MIC (Staphylococcus aureus [10]): 1 µg/mL
MIC (Staphylococcus aureus [11]): 2 µg/mL
MIC (Staphylococcus aureus [12]): 2 µg/mL
MIC (Enterococcus faecalis): > 32 µg/mL
